Measurements published in ChEMBL document CHEMBL1833869, “Effect of lipophilicity modulation on inhibition of human rhinovirus capsid binders” (Bioorg Med Chem Lett, 2011).
pEC50, pIC50: −log10 of the molar value. Values after ≈ are worked out from the molar mass of the structure shown.

How the values were obtained:
rhinovirus A16 = assay: Antiviral activity against Human rhinovirus 16 infected in human HeLa Ohio cells assessed as inhibition of virus-induced cytopathic effect by CellTiter-Glo assay; format: functional, organism-based; conditions: Rhinovirus A
[1] = Clearance in rat at 2 mg/kg, iv; format: ADME, organism-based; design: dose 2 mg/kg, route intravenous; conditions: in vivo
rhinovirus A2 = assay: Antiviral activity against Human rhinovirus 2 infected in human HeLa Ohio cells assessed as inhibition of virus-induced cytopathic effect by CellTiter-Glo assay; format: functional, organism-based; conditions: Rhinovirus A
[2] = Oral bioavailability in rat; format: ADME, organism-based; conditions: in vivo
Cytochrome P450 1A2 [3] = biological target: T1, Cytochrome P450 1A2 (Homo sapiens, UniProt P05177); assay: Inhibition of CYP1A2; format: ADME
T1 sequence (P05177 whole entry): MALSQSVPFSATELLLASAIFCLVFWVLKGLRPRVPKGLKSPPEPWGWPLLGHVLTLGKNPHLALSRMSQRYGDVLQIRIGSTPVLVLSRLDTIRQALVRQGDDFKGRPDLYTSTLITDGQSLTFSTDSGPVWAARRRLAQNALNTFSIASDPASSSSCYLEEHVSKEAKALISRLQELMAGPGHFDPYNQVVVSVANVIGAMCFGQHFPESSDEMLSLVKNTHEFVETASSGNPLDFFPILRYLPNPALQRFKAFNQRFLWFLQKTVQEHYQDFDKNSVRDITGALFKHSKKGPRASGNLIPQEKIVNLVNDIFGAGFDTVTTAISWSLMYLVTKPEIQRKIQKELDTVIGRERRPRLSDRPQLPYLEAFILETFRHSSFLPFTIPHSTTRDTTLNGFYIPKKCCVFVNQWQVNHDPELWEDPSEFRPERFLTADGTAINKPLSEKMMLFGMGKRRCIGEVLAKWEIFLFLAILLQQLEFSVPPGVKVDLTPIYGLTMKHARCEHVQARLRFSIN

PXR (NR1I2) = biological target: T2, PXR (NR1I2) (Homo sapiens, UniProt O75469); assay: Activation of human PXR expressed in african green monkey CV1 cells transfected with pSG5-hPXRDATG and (ER6)3-tk-CAT reporter assessed as maximal activation relative to control; format: cell-based, CV-1
T2 sequence (O75469 whole entry): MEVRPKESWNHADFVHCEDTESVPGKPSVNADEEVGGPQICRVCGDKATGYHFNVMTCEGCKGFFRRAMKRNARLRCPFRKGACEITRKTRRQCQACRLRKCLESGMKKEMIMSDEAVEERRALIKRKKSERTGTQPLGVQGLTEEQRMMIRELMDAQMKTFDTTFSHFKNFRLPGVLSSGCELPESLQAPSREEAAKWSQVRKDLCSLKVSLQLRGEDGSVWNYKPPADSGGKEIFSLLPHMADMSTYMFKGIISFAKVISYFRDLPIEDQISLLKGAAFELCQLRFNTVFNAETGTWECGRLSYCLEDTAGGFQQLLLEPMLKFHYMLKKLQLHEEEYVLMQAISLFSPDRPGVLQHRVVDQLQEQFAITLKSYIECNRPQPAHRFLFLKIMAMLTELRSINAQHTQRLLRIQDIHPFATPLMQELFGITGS

Cytochrome P450 1A2 [4] = biological target: T1, Cytochrome P450 1A2; assay: Time dependent inhibition of CYP1A2; format: ADME
[5] = Intrinsic clearance in human microsomes after 45 mins by HPLC method; format: ADME, Microsome
Cytochrome P450 2C9 [6] = biological target: T3, Cytochrome P450 2C9 (Homo sapiens, UniProt P11712); assay: Time dependent inhibition of CYP2C9; format: ADME
[7] = biological target: T4, Nuclear receptor subfamily 1 group I member 2 (Homo sapiens, UniProt O75469); assay: Activation of human PXR expressed in african green monkey CV1 cells transfected with pSG5-hPXRDATG and (ER6)3-tk-CAT reporter; format: cell-based, CV-1
T4 sequence (O75469 whole entry): T2 sequence (O75469 whole entry)

[8] = Volume of distribution at steady state in rat at 2 mg/kg, iv; format: ADME, organism-based; design: dose 2 mg/kg, route intravenous; conditions: in vivo, read-out: Vdss
Cytochrome P450 2C19 [9] = biological target: T5, Cytochrome P450 2C19 (Homo sapiens, UniProt P33261); assay: Inhibition of CYP2C19; format: ADME
[10] = Lipophilicity, log D of the compound; format: physicochemical; conditions: octanol/water
[11] = Unbound fraction in human plasma; format: ADME, cell-free
[12] = Half life in rat at 2 mg/kg, iv; format: ADME, organism-based; design: dose 2 mg/kg, route intravenous; conditions: in vivo
Cytochrome P450 2D6 [13] = biological target: T6, Cytochrome P450 2D6 (Homo sapiens, UniProt P10635); assay: Time dependent inhibition of CYP2D6; format: ADME
Cytochrome P450 3A4 [14] = biological target: T7, Cytochrome P450 3A4 (Homo sapiens, UniProt P08684); assay: Time dependent inhibition of CYP3A4; format: ADME
Cytochrome P450 3A4 [15] = biological target: T7, Cytochrome P450 3A4; assay: Inhibition of CYP3A4; format: ADME
Cytochrome P450 2D6 [16] = biological target: T6, Cytochrome P450 2D6; assay: Inhibition of CYP2D6; format: ADME
Cytochrome P450 2C9 [17] = biological target: T3, Cytochrome P450 2C9; assay: Inhibition of CYP2C9; format: ADME
[18] = Unbound fraction in rat plasma; format: ADME, cell-free
[19] = Apparent permeability of compound by PAMPA; format: ADME
[20] = Aqueous equilibrium solubility of the compound by shake-flask technique; format: physicochemical; conditions: buffer
[21] = Intrinsic clearance in Sprague-Dawley rat hepatocytes assessed per 10^6 cells preincubated for 5 mins measured after 90 mins; format: ADME, cell-based, Liver, Hepatocyte
[22] = Chemical stability of compound assessed as half life; format: physicochemical
Cytochrome P450 2C19 [23] = biological target: T5, Cytochrome P450 2C19; assay: Time dependent inhibition of CYP2C19; format: ADME
rhinovirus B14 = assay: Antiviral activity against Human rhinovirus 14 infected in human HeLa Ohio cells assessed as inhibition of virus-induced cytopathic effect by CellTiter-Glo assay; format: functional, organism-based; conditions: Rhinovirus B

T5 sequence (P33261 whole entry): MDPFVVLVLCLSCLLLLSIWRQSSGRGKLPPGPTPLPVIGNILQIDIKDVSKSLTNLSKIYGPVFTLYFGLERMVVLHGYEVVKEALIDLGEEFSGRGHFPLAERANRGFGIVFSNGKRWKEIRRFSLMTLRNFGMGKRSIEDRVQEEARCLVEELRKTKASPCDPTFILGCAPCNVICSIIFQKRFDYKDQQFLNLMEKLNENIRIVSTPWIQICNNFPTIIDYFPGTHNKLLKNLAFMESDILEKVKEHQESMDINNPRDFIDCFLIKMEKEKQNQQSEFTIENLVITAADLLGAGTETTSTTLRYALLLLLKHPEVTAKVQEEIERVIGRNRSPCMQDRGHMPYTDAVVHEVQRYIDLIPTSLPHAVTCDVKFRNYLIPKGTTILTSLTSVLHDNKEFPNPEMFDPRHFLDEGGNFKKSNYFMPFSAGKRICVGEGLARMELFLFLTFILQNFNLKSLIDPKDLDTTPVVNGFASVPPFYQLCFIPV
T3 sequence (P11712 whole entry): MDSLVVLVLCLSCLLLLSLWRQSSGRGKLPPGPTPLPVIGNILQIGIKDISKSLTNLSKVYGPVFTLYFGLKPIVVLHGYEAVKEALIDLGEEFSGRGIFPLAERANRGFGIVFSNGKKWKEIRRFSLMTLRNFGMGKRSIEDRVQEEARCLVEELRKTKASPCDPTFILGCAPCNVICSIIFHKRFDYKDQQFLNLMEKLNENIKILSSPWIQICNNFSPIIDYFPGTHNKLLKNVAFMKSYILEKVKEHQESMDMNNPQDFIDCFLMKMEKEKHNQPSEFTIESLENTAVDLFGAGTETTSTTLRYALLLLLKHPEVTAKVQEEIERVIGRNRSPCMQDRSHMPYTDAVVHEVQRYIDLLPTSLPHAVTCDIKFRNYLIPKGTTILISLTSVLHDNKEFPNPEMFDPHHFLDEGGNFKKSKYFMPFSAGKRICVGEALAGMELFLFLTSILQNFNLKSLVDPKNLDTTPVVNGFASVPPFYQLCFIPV
T6 sequence (P10635 whole entry): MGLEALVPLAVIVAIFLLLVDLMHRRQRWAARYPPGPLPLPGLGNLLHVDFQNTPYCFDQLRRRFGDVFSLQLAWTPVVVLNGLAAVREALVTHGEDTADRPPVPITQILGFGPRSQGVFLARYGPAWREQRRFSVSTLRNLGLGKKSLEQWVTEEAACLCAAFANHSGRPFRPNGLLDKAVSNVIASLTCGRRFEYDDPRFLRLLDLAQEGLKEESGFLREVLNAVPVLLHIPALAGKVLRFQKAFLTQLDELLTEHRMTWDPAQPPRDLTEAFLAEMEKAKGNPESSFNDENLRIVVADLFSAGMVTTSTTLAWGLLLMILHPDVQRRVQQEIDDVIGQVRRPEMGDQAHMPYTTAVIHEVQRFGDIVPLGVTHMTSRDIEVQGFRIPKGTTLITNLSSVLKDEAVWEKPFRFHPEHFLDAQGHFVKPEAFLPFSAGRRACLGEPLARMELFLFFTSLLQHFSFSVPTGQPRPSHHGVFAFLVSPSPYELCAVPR
T7 sequence (P08684 whole entry): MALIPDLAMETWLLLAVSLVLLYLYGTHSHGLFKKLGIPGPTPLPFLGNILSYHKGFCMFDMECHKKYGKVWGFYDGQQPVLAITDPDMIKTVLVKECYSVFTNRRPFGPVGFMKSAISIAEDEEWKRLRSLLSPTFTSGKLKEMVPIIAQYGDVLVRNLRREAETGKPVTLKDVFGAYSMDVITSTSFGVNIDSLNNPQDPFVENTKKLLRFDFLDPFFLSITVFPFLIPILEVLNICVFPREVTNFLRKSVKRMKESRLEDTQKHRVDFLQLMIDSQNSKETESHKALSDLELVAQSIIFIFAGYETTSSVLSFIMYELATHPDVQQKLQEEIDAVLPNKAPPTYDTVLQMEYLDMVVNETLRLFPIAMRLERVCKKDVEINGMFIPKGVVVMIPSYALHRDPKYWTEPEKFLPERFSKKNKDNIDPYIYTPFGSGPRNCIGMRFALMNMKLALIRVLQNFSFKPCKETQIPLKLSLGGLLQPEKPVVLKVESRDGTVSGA

Work on `CCOC(=O)c1ccc(OCCC2CN(c3ccc(C)nn3)C2)cc1` yielded a pIC50 (rhinovirus A16) of 7.50.

Work on `CCOC(=O)c1ccc(COCC2CCN(c3ccc(C)nn3)CC2)cc1` yielded a pIC50 (rhinovirus A16) of 7.00.

Compound `CCOC(=O)c1ccc(COC2CCN(c3ccc(C)nn3)CC2)cc1` has a pIC50 (rhinovirus A16) of 7.60.

`CCOC(=O)c1ccc(OCCC2CN(c3ccc(C)nn3)CCO2)cc1` (stereo not drawn) gave a pIC50 (rhinovirus A16) of 7.20.

In the case of `CCOC(=O)c1ccc(OCCC2(C#N)CCN(c3ccc(C)nn3)CC2)cc1`, the pIC50 (rhinovirus A16) was 6.80.

For `CCOC(=O)c1ccc(CCN2CCN(c3ccc(C)nn3)CC2)cc1`, the pIC50 (rhinovirus A16) was 7.10.

`CCOC(=O)c1ccc(OCC2CCN(c3ccc(C)nn3)C2)cc1` (stereo not drawn) showed a pIC50 (rhinovirus A16) of 7.70.

Work on `CCOC(=O)c1ccc(OCC2CN(c3ccc(C)nn3)C2)cc1` yielded a pIC50 (rhinovirus A16) of 7.20.

For `CCOC(=O)c1ccc(COC2CN(c3ccc(C)nn3)C2)cc1`, the pIC50 (rhinovirus A16) was 7.20.

Compound `CCOC(=O)c1ccc(OCCC2CCN(c3ccc(C)nn3)CC2)nc1` has a pIC50 (rhinovirus A16) of 7.20.

With `CCOC(=O)c1ccc(OCCC2CCN(c3ccc(C)nn3)CC2)cn1` the pIC50 (rhinovirus A16) was 5.60.

`CCOc1nc2ccc(OCCC3CCN(c4ccc(C)nn4)CC3)cn2n1` gave a pIC50 (rhinovirus A16) of 5.80.

Compound `CCOc1nnc2cc(OCCC3CCN(c4ccc(C)nn4)CC3)ccn12` has a pIC50 (rhinovirus A16) of 5.80.

For `Cc1ccc(N2CCC(CCOc3ccc(S(C)(=O)=O)cc3)CC2)nn1`, the pIC50 (rhinovirus A16) was 5.70.

With `Cc1ccc(N2CCC(CCOc3ccc([S+](C)[O-])cc3)CC2)nn1` (stereo not drawn) the pIC50 (rhinovirus A16) was under 4.50.

In the case of `Cc1ccc(N2CC(COc3ccc(-c4noc(C)n4)cc3)C2)nn1`, the clearance [1] was 9 mL/min/kg, the pIC50 (rhinovirus A2) was 7.30 and the bioavailability [2] was 60%. For the same compound, the pIC50 (Cytochrome P450 1A2 [3]) was under 5.00, the Emax (PXR (NR1I2)) was 19% and the pIC50 (Cytochrome P450 1A2 [4]) was under 4.30. It also gave a microsomal CLint [5] of 26 µL/min/mg, a pIC50 (Cytochrome P450 2C9 [6]) of under 4.30 and a pEC50 [7] of 4.50. The Vd [8] was 1.5 L/kg, the pIC50 (Cytochrome P450 2C19 [9]) was under 5.00 and the logD [10] was 2.6. For the same compound, the fraction unbound [11] was 0.06, the half-life [12] was 2.2 h and the pIC50 (Cytochrome P450 2D6 [13]) was under 4.30. It also gave a pIC50 (rhinovirus A16) of 7.10, a pIC50 (Cytochrome P450 3A4 [14]) of under 4.30 and a pIC50 (Cytochrome P450 3A4 [15]) of under 5.00. It also gave a pIC50 (Cytochrome P450 2D6 [16]) of under 5.00, a pIC50 (Cytochrome P450 2C9 [17]) of under 5.00 and a fraction unbound [18] of 0.05. It also gave a Papp [19] of 47 ×10⁻⁶ cm/s, a solubility thermodynamic [20] of 125 µM (≈ 42.2 µg/mL) and a hepatocyte CLint [21] of 5 µL/min/1e6 cells. For the same compound, the half-life [22] was over 200 h and the pIC50 (Cytochrome P450 2C19 [23]) was under 4.30.

In the case of `CCOC(=O)c1ccc(OCCC2CCN(c3ccc(C)nn3)CC2)cc1` [PIRODAVIR], the pIC50 (rhinovirus A2) was over 7.00, the pIC50 (rhinovirus A16) was 7.20 and the pIC50 (rhinovirus B14) was over 7.00.

Work on `Cc1cc(CCCOc2c(C)cc(-c3noc(C(F)(F)F)n3)cc2C)on1` [PLECONARIL] yielded a pIC50 (rhinovirus A2) of 7.00, a pIC50 (Cytochrome P450 1A2 [3]) of under 5.00 and an Emax (PXR (NR1I2)) of 88%. The pIC50 (Cytochrome P450 1A2 [4]) was under 4.30, the microsomal CLint [5] was 22 µL/min/mg and the pIC50 (Cytochrome P450 2C9 [6]) was under 4.30. The pEC50 [7] was 6.60, the pIC50 (Cytochrome P450 2C19 [9]) was under 5.00 and the logD [10] was over 4.5. For the same compound, the fraction unbound [11] was 0.0013, the pIC50 (Cytochrome P450 2D6 [13]) was under 4.30 and the pIC50 (rhinovirus A16) was 6.00. It also gave a pIC50 (rhinovirus B14) of over 7.00, a pIC50 (Cytochrome P450 2D6 [16]) of 5.20 and a pIC50 (Cytochrome P450 2C9 [17]) of under 5.00. It also gave a fraction unbound [18] of under 0.002, a solubility thermodynamic [20] of under 2 µM and a hepatocyte CLint [21] of 20 µL/min/1e6 cells. For the same compound, the pIC50 (Cytochrome P450 2C19 [23]) was under 4.30.
